PubChem BioAssay (NCI)
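Abbreviation: GI50, concentration required for 50% inhibition of growth. TGI denotes the concentration required for complete inhibition of growth.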

What was measured:
Assay in all cases: NCI-60 cell line screen, 384-well format
TK-10 renal = system: TK-10 renal
ACHN renal = system: ACHN renal
T-47D breast = system: T-47D breast
MDA-MB-435 melanoma = system: MDA-MB-435 melanoma
MDA-MB-231 breast = system: MDA-MB-231 breast
A498 renal = system: A498 renal
OVCAR-8 ovarian = system: OVCAR-8 ovarian
NCI-H23 lung = system: NCI-H23 lung
U251 glioblastoma = system: U251 glioblastoma
MALME-3M melanoma = system: MALME-3M melanoma
NCI-H322M lung = system: NCI-H322M lung
HCT-15 colon = system: HCT-15 colon
SK-MEL-5 melanoma = system: SK-MEL-5 melanoma
SK-MEL-2 melanoma = system: SK-MEL-2 melanoma
SF-268 CNS = system: SF-268 CNS
OVCAR-3 ovarian = system: OVCAR-3 ovarian
786-0 renal = system: 786-0 renal
UACC-62 melanoma = system: UACC-62 melanoma
MCF7 breast = system: MCF7 breast
UO-31 renal = system: UO-31 renal
K-562 leukemia = system: K-562 leukemia
HT29 colon = system: HT29 colon
BT-549 breast = system: BT-549 breast
KM12 colon = system: KM12 colon
A549 NSCLC = system: A549 NSCLC
IGROV1 ovarian = system: IGROV1 ovarian
SW-620 colon = system: SW-620 colon
SNB-75 CNS = system: SNB-75 CNS
COLO 205 colon = system: COLO 205 colon
MDA-MB-468 breast = system: MDA-MB-468 breast
SF-539 CNS = system: SF-539 CNS
SK-MEL-28 melanoma = system: SK-MEL-28 melanoma
PC-3 prostate = system: PC-3 prostate
HCT-116 colon = system: HCT-116 colon
HOP-92 NSCLC = system: HOP-92 NSCLC
EKVX NSCLC = system: EKVX NSCLC
UACC-257 melanoma = system: UACC-257 melanoma
NCI-H226 lung = system: NCI-H226 lung
CAKI-1 renal = system: CAKI-1 renal
HS 578T breast = system: HS 578T breast
HL-60(TB) leukemia = system: HL-60(TB) leukemia
SN12C renal = system: SN12C renal
SK-OV-3 ovarian = system: SK-OV-3 ovarian
SF-295 CNS = system: SF-295 CNS
MOLT-4 leukemia = system: MOLT-4 leukemia
OVCAR-4 ovarian = system: OVCAR-4 ovarian
SNB-19 CNS = system: SNB-19 CNS
NCI-H522 lung = system: NCI-H522 lung
OVCAR-5 ovarian = system: OVCAR-5 ovarian
SR leukemia = system: SR leukemia
HOP-62 NSCLC = system: HOP-62 NSCLC
M14 melanoma = system: M14 melanoma
DU-145 prostate = system: DU-145 prostate

CNC(=O)c1cc2c(Oc3ccc(NC(=O)C4(C(=O)Nc5ccc(F)cc5)CC4)cc3)ccnc2cc1OC
GI50 (TK-10 renal): 2.85 µM
TGI (TK-10 renal): 14.1 µM
GI50 (ACHN renal): 1.67 µM
TGI (ACHN renal): 5.7 µM
GI50 (T-47D breast): 1.81 µM
TGI (T-47D breast): 9.37 µM
GI50 (MDA-MB-435 melanoma): 1.63 µM
TGI (MDA-MB-435 melanoma): 3.47 µM
GI50 (MDA-MB-231 breast): 3.33 µM
TGI (MDA-MB-231 breast): > 100 µM
GI50 (A498 renal): 2.87 µM
TGI (A498 renal): 9.79 µM
GI50 (OVCAR-8 ovarian): 3.59 µM
TGI (OVCAR-8 ovarian): > 100 µM
GI50 (NCI-H23 lung): 0.546 µM
TGI (NCI-H23 lung): 4.73 µM
GI50 (U251 glioblastoma): 4.56 µM
TGI (U251 glioblastoma): > 100 µM
GI50 (MALME-3M melanoma): 3.5 µM
TGI (MALME-3M melanoma): 17.1 µM
GI50 (NCI-H322M lung): 2.64 µM
TGI (NCI-H322M lung): 8.79 µM
GI50 (HCT-15 colon): 2.96 µM
TGI (HCT-15 colon): 12.3 µM
GI50 (SK-MEL-5 melanoma): 1.43 µM
TGI (SK-MEL-5 melanoma): 4.45 µM
GI50 (SK-MEL-2 melanoma): 2.19 µM
TGI (SK-MEL-2 melanoma): 5.67 µM
GI50 (SF-268 CNS): 3.72 µM
TGI (SF-268 CNS): > 100 µM
GI50 (OVCAR-3 ovarian): 2.56 µM
TGI (OVCAR-3 ovarian): 12.4 µM
GI50 ([…]-0 renal): 3.09 µM
TGI (786-0 renal): 12.5 µM
GI50 (UACC-62 melanoma): 1.86 µM
TGI (UACC-62 melanoma): 5.52 µM
GI50 (MCF7 breast): 1.72 µM
TGI (MCF7 breast): 10.4 µM
GI50 (UO-31 renal): 1.99 µM
TGI (UO-31 renal): 4.9 µM
GI50 (K-562 leukemia): 0.261 µM
TGI (K-562 leukemia): 1.29 µM
GI50 (HT29 colon): 2.96 µM
TGI (HT29 colon): 13.3 µM
GI50 (BT-549 breast): 2.49 µM
TGI (BT-549 breast): 6.88 µM
GI50 (KM12 colon): 4.09 µM
TGI (KM12 colon): 74.6 µM
GI50 (A549 NSCLC): 3.1 µM
TGI (A549 NSCLC): 11.2 µM
GI50 (IGROV1 ovarian): 1.48 µM
TGI (IGROV1 ovarian): 3.41 µM
GI50 (SW-620 colon): 2.72 µM
TGI (SW-620 colon): 10.4 µM
GI50 (SNB-75 CNS): 1.08 µM
TGI (SNB-75 CNS): 3.01 µM
GI50 (COLO 205 colon): 3.38 µM
TGI (COLO 205 colon): 14.4 µM
GI50 (MDA-MB-468 breast): 1.57 µM
TGI (MDA-MB-468 breast): 4.59 µM
GI50 (SF-539 CNS): 0.18 µM
TGI (SF-539 CNS): 3.23 µM
GI50 (SK-MEL-28 melanoma): 2.9 µM
TGI (SK-MEL-28 melanoma): > 100 µM
GI50 (PC-3 prostate): 3.94 µM
TGI (PC-3 prostate): > 100 µM
GI50 (HCT-116 colon): 3.17 µM
TGI (HCT-116 colon): 19.9 µM
GI50 (HOP-92 NSCLC): 1.37 µM
TGI (HOP-92 NSCLC): 5.99 µM
GI50 (EKVX NSCLC): 1.68 µM
TGI (EKVX NSCLC): 5.23 µM
GI50 (UACC-257 melanoma): 2.35 µM
TGI (UACC-257 melanoma): 20.5 µM
GI50 (NCI-H226 lung): 1.63 µM
TGI (NCI-H226 lung): 6.07 µM
GI50 (CAKI-1 renal): 1.61 µM
TGI (CAKI-1 renal): 3.42 µM
GI50 (HS 578T breast): 0.601 µM
TGI (HS 578T breast): 2.73 µM
GI50 (HL-60(TB) leukemia): 2.13 µM
TGI (HL-60(TB) leukemia): 4.05 µM
GI50 (SN12C renal): 0.507 µM
TGI (SN12C renal): 8.21 µM
GI50 (SK-OV-3 ovarian): 1.83 µM
TGI (SK-OV-3 ovarian): 5.63 µM
GI50 (SF-295 CNS): 0.471 µM
TGI (SF-295 CNS): 8.18 µM
GI50 (MOLT-4 leukemia): 1.4 µM
TGI (MOLT-4 leukemia): 2.72 µM
GI50 (OVCAR-4 ovarian): 3.87 µM
TGI (OVCAR-4 ovarian): > 100 µM
GI50 (SNB-19 CNS): 16.2 µM
TGI (SNB-19 CNS): > 100 µM
GI50 (NCI-H522 lung): 1.96 µM
TGI (NCI-H522 lung): 5.53 µM
GI50 (OVCAR-5 ovarian): 3.35 µM
TGI (OVCAR-5 ovarian): > 100 µM
GI50 (SR leukemia): 1.64 µM
TGI (SR leukemia): 3.08 µM
GI50 (HOP-62 NSCLC): 3.47 µM
TGI (HOP-62 NSCLC): 24.3 µM
GI50 (M14 melanoma): 3.36 µM
TGI (M14 melanoma): 31.5 µM
GI50 (DU-145 prostate): 4.12 µM
TGI (DU-145 prostate): > 100 µM
